Assay results as given in US3948898A, “1,3-Dioxo-2-aminoalkyl-4,4-dimethyl-isoquinolines and salts thereof” (Boehringer Ingelheim GmbH, priority 1973, dated 1976).
Where a name gives a salt, the structure may show the parent alone.

Experiments:
[1] = acute toxicity in mice after oral application (LD50); details: mouse, in vivo, p.o., observation time 14 days
Description: The acute toxicity of the compounds was tested in mice (observation time: 14 days) after oral application. The LD50 was calculated from the percentage of the animals which died within the observation time after application of varying doses [see J. Pharmacol. exper. Therap.

[2] = hypotensive activity in anesthetized mongrel dogs (i.v.); format: in vivo
Description: The test compounds were injected intravenously into the vena saphena in aqueous solution. The arterial bloodpressure was measured before and after administration in the arteria femoralis by means of a […]-pressure transducer and registered on a Grass-polygraph.

Compound | LD50 at 336 h [1] [mg/kg] | Decrease of bloodpressure diast. ([2]; 0.05 mg/kg i.v.) [mm Hg] | Decrease of bloodpressure syst. ([2]; 0.05 mg/kg i.v.) [mm Hg] | Duration of activity ([2]; 0.05 mg/kg i.v.) [min] | Decrease of bloodpressure diast. ([2]; 0.1 mg/kg i.v.) [mm Hg] | Decrease of bloodpressure syst. ([2]; 0.1 mg/kg i.v.) [mm Hg] | Duration of activity ([2]; 0.1 mg/kg i.v.) [min] | Decrease of bloodpressure diast. ([2]; 0.5 mg/kg i.v.) [mm Hg] | Decrease of bloodpressure syst. ([2]; 0.5 mg/kg i.v.) [mm Hg] | Duration of activity ([2]; 0.5 mg/kg i.v.) [min] | Decrease of bloodpressure diast. ([2]; 1.0 mg/kg i.v.) [mm Hg] | Decrease of bloodpressure syst. ([2]; 1.0 mg/kg i.v.) [mm Hg] | Duration of activity ([2]; 1.0 mg/kg i.v.) [min]
COc1ccccc1N1CCN(CCN2C(=O)c3ccccc3C(C)(C)C2=O)CC1.Cl.Cl [A, 1-[4,4-dimethyl-1,3-dioxo-(2H,4H)-isoquinolin-2-yl]-2-[4-(2-methoxy-phenyl)-piperazin-1-yl]-ethane dihydrochloride] | 850 | -31 | -27 | 53 | -34 | -33 | 47 |  |  |  |  |  | 
COc1ccc2c(c1)C(=O)N(CCCNCCc1ccc(OC)c(OC)c1)C(=O)C2(C)C [B, 1-[4,4-dimethyl-7-methoxy-1,3-dioxo-(2H,4H)-isoquinolin-2-yl]-3-[2-(3,4-dimethoxy-phenyl)-ethylamine]propane hydrochloride] | 775 |  |  |  |  |  |  | -36 | -32 | 35 | -40 | -36 | 40
